For 76 compounds, IC50 results are on record in ChEMBL document CHEMBL3714750, “Aryl sulfonamides” (2008).

pIC50: −log10 of the molar value. Bounds are passed on as bounds.

The pIC50 is −log10 of the IC50, conventionally taken in molar units.

This experiment has as its target T1, C-C chemokine receptor type 9 (Homo sapiens, UniProt P51686).
T1 sequence (P51686 whole entry): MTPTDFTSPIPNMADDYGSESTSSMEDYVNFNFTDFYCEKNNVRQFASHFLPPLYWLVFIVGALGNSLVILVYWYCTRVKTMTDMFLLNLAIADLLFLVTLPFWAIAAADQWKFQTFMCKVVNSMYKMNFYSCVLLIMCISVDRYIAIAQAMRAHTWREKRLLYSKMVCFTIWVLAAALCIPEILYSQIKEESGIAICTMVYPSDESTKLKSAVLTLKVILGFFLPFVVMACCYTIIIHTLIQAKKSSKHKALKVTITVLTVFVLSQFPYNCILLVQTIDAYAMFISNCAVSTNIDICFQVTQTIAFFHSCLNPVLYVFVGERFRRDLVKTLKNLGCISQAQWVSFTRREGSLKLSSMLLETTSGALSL
As to the kind of experiment: Antagonist activity against CCR9 in human MOLT4 cells assessed as inhibition of human recombinant TECK-induced calcium response pre-treated before TECK stimulation by Flou-4-AM dye based FLIPR assay. In kind it is functional, cell-based, MOLT-4.
For `CC1(c2ccc(S(=O)(=O)Nc3ccc(Cl)cc3C(=O)c3ccccn3)cc2)CCOCC1`, the pIC50 was above 6.00.
Turning to `CC(C)(C)c1ccc(S(=O)(=O)Nc2ccc(Cl)cc2C(=O)c2ccc(Cl)nc2)cc1`, the pIC50 was above 6.00.
In the case of `O=C(c1ccncc1)c1cc(Cl)ccc1NS(=O)(=O)c1ccc(N2CCCCC2)cc1` it was above 6.00; in that of `Cc1ncccc1C(=O)c1cc(Cl)ccc1NS(=O)(=O)c1ccc(OC(C)C)cc1`, above 6.00.
In the case of `O=C(c1ccncc1)c1cc(Cl)ccc1NS(=O)(=O)c1ccc(I)cc1` it was above 6.00.
Regarding `Cc1nnc(-c2cccc(S(=O)(=O)Nc3ccc(Cl)cc3C(=O)c3ccncc3)c2)o1`, the pIC50 was below 6.00.
In the case of `CC(C)(C)c1ccc(S(=O)(=O)Nc2ccc(Cl)cc2C(=O)c2ccnc(C#N)c2)cc1` it was above 6.00; in that of `CCOC(=O)CNC(=O)c1cc(Cl)ccc1NS(=O)(=O)c1ccc(OC)cc1`, below 6.00.
In the case of `Cc1cccc(C(=O)c2cc(Cl)ccc2NS(=O)(=O)c2ccc(C(C)(C)c3ncco3)cc2)n1` it was above 6.00; in that of `CC(C)(C)c1ccc(S(=O)(=O)Nc2cc(Cl)ccc2C(=O)c2ccncc2)cc1`, above 6.00; in that of `O=C(c1ccncc1)c1cc(Cl)ccc1NS(=O)(=O)c1ccc(-c2cc3ccccc3[nH]2)cc1`, below 6.00.
As for `Cc1c(C(=O)c2cc(Cl)ccc2NS(=O)(=O)c2ccc(C(C)(C)C)cc2)ccc[n+]1[O-]`, the negative logarithm of the IC50 (pIC50) is above 6.00.
In the case of `CC(C)(c1ccc(S(=O)(=O)Nc2ccc(Cl)cc2C(=O)c2ccncc2)cc1)c1ncco1` it was above 6.00; in that of `CC(C)(C)c1ccc(S(=O)(=O)Nc2ccc(Cl)cc2C(=O)c2cc[nH]n2)cc1`, above 6.00; in that of `O=C(c1ccncc1)c1cc(Cl)ccc1NS(=O)(=O)c1ccc(N2CCOCC2)cc1`, above 6.00.
`CC(=O)c1ccc(S(=O)(=O)Nc2ccc(Cl)cc2C(=O)c2ccc(C)nc2)cc1`: the pIC50 is below 6.00.
The value for `O=C(c1ccncn1)c1cc(Cl)ccc1NS(=O)(=O)c1ccc(-c2cnco2)cc1` was below 6.00; that for `CSc1ccc(C(=O)c2cc(Cl)ccc2NS(=O)(=O)c2ccc(C(C)(C)C)cc2)cn1` was above 6.00.
The value for `O=C(c1cccnc1)c1cc(Cl)ccc1NS(=O)(=O)c1ccc(OC(F)(F)F)cc1` was above 6.00; that for `CC(=O)c1ccc(S(=O)(=O)Nc2ccc(Cl)cc2C(=O)c2ccc(C)[n+]([O-])c2)cc1` was above 6.00.
The value for `CN(C)C(=O)C(C)(C)c1ccc(S(=O)(=O)Nc2ccc(Cl)cc2C(=O)c2ccncc2)cc1` was below 6.00.
With `Cc1ccc(C(=O)c2cc(Cl)ccc2NS(=O)(=O)c2ccc(C(C)(C)c3ncco3)cc2)cn1`, the pIC50 was above 6.00.
With `Cc1ccc(C(=O)c2cc(Cl)ccc2NS(=O)(=O)c2ccc(-c3cnco3)cc2)cn1`, the pIC50 is above 6.00.
In the case of `Cc1ccc(C(=O)c2cc(Cl)ccc2NS(=O)(=O)c2ccc(C(C)(C)C)cc2)cn1` it was above 6.00.
In the case of `COC(=O)CCc1ccc(S(=O)(=O)Nc2ccc(Cl)cc2C(=O)c2ccncc2)cc1` it was above 6.00; in that of `CC(C)(c1ccc(S(=O)(=O)Nc2ccc(Cl)cc2C(=O)c2cc[n+]([O-])cc2)cc1)c1cnco1`, above 6.00; in that of `Cc1ccc(C(=O)c2cc(Cl)ccc2NS(=O)(=O)c2ccc(N3CCOCC3)c(F)c2)cn1`, above 6.00.
The value for `O=C(c1ccncc1)c1cc(Cl)ccc1NS(=O)(=O)c1ccc(N2CCN(CC(F)(F)F)CC2)cc1` was below 6.00; that for `CC(C)(C)c1ccc(S(=O)(=O)Nc2ccc(Cl)cc2C(=O)c2ccc(N3CCOCC3)nc2)cc1` was below 6.00; that for `O=C(c1ccncc1)c1cc(Cl)ccc1NS(=O)(=O)c1ccc(C(F)(F)F)cc1` was below 6.00.
Turning to `CC(C)(C)c1ccc(S(=O)(=O)Nc2ccc(S(=O)(=O)N3CCCC3)cc2C(=O)c2cc[n+]([O-])cc2)cc1`, the pIC50 is below 6.00.
In the case of `CC(C)(C)c1ccc(S(=O)(=O)Nc2ccc(F)c(F)c2C(=O)c2ccncc2)cc1` it was above 6.00; in that of `Cc1ccc(C(=O)c2cc(Cl)ccc2NS(=O)(=O)c2ccc(OC(F)(F)F)cc2)cn1`, above 6.00; in that of `Cn1nnnc1-c1ccc(S(=O)(=O)Nc2ccc(Cl)cc2C(=O)c2ccncc2)cc1`, below 6.00.
The value for `COc1ccc(S(=O)(=O)Nc2ccc(Cl)cc2C(=O)Nc2ccccc2)cc1` was above 6.00.
In the case of `CC(C)(C)c1ccc(S(=O)(=O)Nc2ccc(S(=O)(=O)N3CCCC3)cc2C(=O)c2ccncc2)cc1` it was below 6.00; in that of `CC(=O)c1ccc(S(=O)(=O)Nc2ccc(Cl)cc2C(=O)c2ccncc2)cc1`, below 6.00.
`CC1(c2ccc(S(=O)(=O)Nc3ccc(Cl)cc3C(=O)c3ccc[n+]([O-])c3)cc2)CCOCC1`: the pIC50 was above 6.00.
On to `O=C(c1ccc[n+]([O-])c1)c1cc(Cl)ccc1NS(=O)(=O)c1ccc(N2CCOCC2)cc1`, for which the pIC50 was above 6.00.
As for `COc1ccc(S(=O)(=O)Nc2ccc(Cl)cc2C(=O)c2ccncc2)cc1`, the pIC50 was above 6.00.
In the case of `COc1ccc(S(=O)(=O)Nc2ccc(Cl)cc2C(=O)NCCc2ccccc2)cc1` it was above 6.00; in that of `O=C(c1cc[n+]([O-])cc1)c1cc(Cl)ccc1NS(=O)(=O)c1ccc(N2CCOCC2)c(F)c1`, above 6.00.
In the case of `O=C(c1ccncc1)c1cc(Cl)ccc1NS(=O)(=O)c1ccc(OC(F)(F)F)cc1` it was above 6.00; in that of `Cc1ccc(C(=O)c2cc(Cl)ccc2NS(=O)(=O)c2ccc(C(C)(C)c3ncco3)cc2)c[n+]1[O-]`, above 6.00; in that of `Cc1ccc(C(=O)c2cc(Cl)ccc2NS(=O)(=O)c2ccc(N3C[C@@H](C)O[C@@H](C)C3)c(F)c2)cn1`, above 6.00.
The value for `O=C(c1ccncc1)c1cc(Cl)ccc1NS(=O)(=O)c1ccc(N2CCCC2)cc1` was above 6.00; that for `O=C(c1ccncc1)c1cc(Cl)ccc1NS(=O)(=O)c1ccc(-c2cccnc2F)cc1` was below 6.00.
As to `CC(C)Oc1ccc(S(=O)(=O)Nc2ccc(Cl)cc2C(=O)c2cccnc2)cc1`, the pIC50 is above 6.00.
The value for `CC(C)(C)c1ccc(S(=O)(=O)Nc2ccc(Cl)cc2C(=O)c2nccs2)cc1` was above 6.00; that for `CC(C)(C)c1ccc(S(=O)(=O)Nc2ccc(Cl)cc2C(=O)c2ccnc(S(C)(=O)=O)c2)cc1` was above 6.00; that for `C[C@@H]1CN(c2ccc(S(=O)(=O)Nc3ccc(Cl)cc3C(=O)c3cc[n+]([O-])cc3)cc2)C[C@H](C)O1` was above 6.00.
In the case of `CC(C)(C)c1ccc(S(=O)(=O)Nc2cc(F)c(F)cc2C(=O)c2ccncc2)cc1` it was above 6.00; in that of `O=C(c1ccncc1)c1cc(Cl)ccc1NS(=O)(=O)c1ccc(Cl)cc1`, below 6.00; in that of `Cc1ccc(C(=O)c2cc(Cl)ccc2NS(=O)(=O)c2ccc(N3CCOCC3)cc2)c[n+]1[O-]`, above 6.00.
The value for `CC(C)(c1ccc(S(=O)(=O)Nc2ccc(Cl)cc2C(=O)c2ccnc(Cl)c2)cc1)c1ncco1` was above 6.00; that for `CS(=O)(=O)c1ccc(S(=O)(=O)Nc2ccc(Cl)cc2C(=O)c2ccncc2)cc1` was below 6.00.
With `Cc1ccc(C(=O)c2cc(Cl)ccc2NS(=O)(=O)c2ccc(N3C[C@@H](C)O[C@@H](C)C3)cc2)c[n+]1[O-]`, the pIC50 is above 6.00.
The value for `CC(C)(C)c1ccc(S(=O)(=O)Nc2ccc(Cl)cc2C(=O)c2ccnc(Cl)c2)cc1` was above 6.00.
In the case of `CC(C)(C)c1ccc(S(=O)(=O)Nc2ccc(Cl)cc2C(=O)c2ccc[n+]([O-])c2)cc1` it was above 6.00.
In the case of `O=C(c1ccncc1)c1cc(Cl)ccc1NS(=O)(=O)c1ccc(-c2cnco2)cc1` it was above 6.00; in that of `O=C(c1ccncc1)c1cc(Cl)ccc1NS(=O)(=O)c1ccc(-c2ccco2)cc1`, above 6.00; in that of `Cc1ccc(C(=O)c2cc(Cl)ccc2NS(=O)(=O)c2ccc(C(C)(C)C)cc2)c[n+]1[O-]`, above 6.00.
With `Cc1cc(C(=O)c2cc(Cl)ccc2NS(=O)(=O)c2ccc(OC(F)(F)F)cc2)ccn1`, the pIC50 is above 6.00.
In the case of `CC(C)(C)OC(=O)n1cccc1-c1ccc(S(=O)(=O)Nc2ccc(Cl)cc2C(=O)c2ccncc2)cc1` it was below 6.00; in that of `Cc1ccc(C(=O)c2cc(Cl)ccc2NS(=O)(=O)c2ccc(C3(C)CCOCC3)cc2)c[n+]1[O-]`, above 6.00; in that of `O=C(c1ccncc1)c1cc(Cl)ccc1NS(=O)(=O)c1ccc(-c2ccc[nH]2)cc1`, below 6.00.
For the compound `CC(C)(C)c1ccc(S(=O)(=O)Nc2ccc(F)c(F)c2C(=O)c2cccnc2)cc1`, the negative-log IC50 (pIC50) is above 6.00.
Consider `CC(C)(C)OC(=O)n1c(-c2ccc(S(=O)(=O)Nc3ccc(Cl)cc3C(=O)c3ccncc3)cc2)cc2ccccc21`, for which the pIC50 was below 6.00.
On to `Cc1ccc(C(=O)c2cc(Cl)ccc2NS(=O)(=O)c2ccc(-c3cnc(C)o3)cc2)cn1`, for which the pIC50 was below 6.00.
In the case of `CC(C)(c1ccc(S(=O)(=O)Nc2ccc(Cl)cc2C(=O)c2ccncc2)cc1)N1CCCCC1=O` it was above 6.00.
In the case of `Cc1ccc(C(=O)c2cc(Cl)ccc2NS(=O)(=O)c2ccc(S(C)(=O)=O)cc2)c[n+]1[O-]` it was above 6.00; in that of `Cc1nnc(-c2ccc(S(=O)(=O)Nc3ccc(Cl)cc3C(=O)c3cccnc3)cc2)o1`, below 6.00; in that of `COc1ccc(S(=O)(=O)Nc2ccc(Cl)cc2C(=O)N2CCCC(Cc3ccccc3)C2)cc1` (stereo unspecified), below 6.00.
As to `CC(C)(C)c1ccc(S(=O)(=O)Nc2ccc(Cl)cc2C(=O)c2ccncn2)cc1`, the pIC50 was above 6.00.
In the case of `Cc1cccc(C(=O)c2cc(Cl)ccc2NS(=O)(=O)c2ccc(-c3cnc(C)o3)cc2)n1` it was below 6.00; in that of `Cn1cc(C(=O)c2cc(Cl)ccc2NS(=O)(=O)c2ccc(C(C)(C)C)cc2)nn1`, above 6.00.
